These results are taken from patent US12257214B2, “Compositions and methods comprising deoxy-pentitols” (The Charlotte Mecklenburg Hospital Authority, priority 2021, dated 2025).

Type in all cases: cell-based
For one assay, the system named is SW48. The assay is described as follows: ATPlite cell IC50 screening, SW48. The settings on record: Homo sapiens; SW48, Colon adenocarcinoma; ATPlite luminescence. The protocol: (§1) In brief, the cells were cultures in relevant medium and treated with a range of 9 doses of 2-deoxyribitol, from 10 mM, 5 mM, 2.5 mM, 1.25 mM, 0.62 mM, 0.31 mM, 0.08 mM, and 0.04 mM. Cells were diluted in the corresponding ATCC recommended medium and dispensed in a 384-well plate, depending on the cell line used, at a density of 100-6400 cells per well in 45 μl medium. For each used cell line the optimal cell density was used. The margins of the plate were filled with phosphate-buffered saline. Plated cells were incubated in a humidified atmosphere of 5% CO2 at 37° C. After 24 hours, 5 μl of compound dilution was added and plates were further incubated. At the end of experiment (t=end), 24 μl of ATPlite 1Step™ (PerkinElmer) solution was added to each well, and subsequently shaken for 2 minutes. After 10 minutes of incubation in the dark, the luminescence was recorded on an Envision multimode reader (PerkinElmer). IC50 was determined in comparison with the control samples. The cell lines tested and their corresponding disease model is indicated the left-most and middle columns, respectively. IC50 values are given in μM values in the right-most column. This screening was performed of a list of cancer cells to establish IC50 values for each of the cancer cell lines. This screening provides evidence for the potential of 2DR to treat many cancer types.

Another assay deals with A-427. As to the kind of experiment: ATPlite cell IC50 screening, A-427. The conditions noted are these: Homo sapiens; A-427, Lung adenocarcinoma; ATPlite luminescence. The protocol:
as §1

In the next assay the test system is DU 145. As to the kind of experiment: ATPlite cell IC50 screening, DU 145. The conditions noted are these: Homo sapiens; DU 145, Prostate carcinoma; ATPlite luminescence. Here is the method: as §1
A general note: ATP-based viability assays read luminescence as a measure of living cells.

A further assay relates to SW948. The assay is described as follows: ATPlite cell IC50 screening, SW948. The conditions noted are these: Homo sapiens; SW948, Colon adenocarcinoma; ATPlite luminescence. The protocol: as §1

Structures are written as SMILES.

Broadly, the IC50 is the point on the concentration scale where inhibition reaches its midpoint. Consider `OCC[C@H](O)[C@H](O)CO` [2-deoxyribitol], for which the IC50 in the assay on SW48 came out at 4.49 mM; in the assay with A-427, 3.95 mM; in the assay on DU 145, 4.87 mM; in the assay with SW948, 2.53 mM.
